Laboratory results as given in patent publication US8962637B2, “Bicyclic compounds and their uses as dual c-SRC/JAK inhibitors” (Debiopharm S.A., priority 2010, dated 2015).

How the values were obtained:
JAK1 = JAK1 (Homo sapiens (Human), UniProt P23458); assay: JAK1 kinase inhibition; assay type: biochemical; conditions: for inhibition at 0.1 µM: read-out: JAK1 % inhibition at 100 nM; for inhibition at 1 µM: read-out: JAK1 % inhibition at 1 μM
JAK2 = JAK2 (Homo sapiens (Human), UniProt O60674); assay: TR-FRET JAK2 kinase assay; assay type: biochemical; conditions: ATP 10 μM; for inhibition at 0.1 µM: read-out: JAK2 % inhibition at 100 nM, 100 nM; for inhibition at 1 µM: read-out: JAK2 % inhibition at 1 μM
Experimental: (§1) Compounds were screened in the TR-FRET assay for JAK2 and c-Src kinase inhibition. Ultra light poly GT (Perkin Elmer) was used as the substrate for JAK2 and c-Src with the ATP concentration of 10 μM and 50 μM, respectively. […] The dose-response curve fitting was done using GraphPad Prism software.

c-Src = c-Src (Homo sapiens (Human), UniProt P12931); assay: TR-FRET c-Src kinase assay; assay type: biochemical; conditions: ATP 50 μM; for inhibition at 0.1 µM: read-out: c-SRC % inhibition at 100 nM, 100 nM; for inhibition at 1 µM: read-out: c-SRC % inhibition at 1 μM
Experimental: as §1

Mda-Mb-231 cells = assay: Cell viability assay (XTT assay), Mda-Mb-231; assay type: cell-based; conditions: Homo sapiens, 72 hrs
Experimental: Mda-Mb-231 or A549 cells were seeded onto a 96-well micro plate. Next day compounds were added to cells and incubated for 72 hrs. Compound treatment was done in triplicates. After 72 hrs cell culture media was aspirated from the wells and XTT working solution was added and plates were incubated for 2-5 hrs. The absorbance of the samples was measured with a spectrophotometer at a wavelength of 465 nm. EC50 values were calculated using Graphpad Prism. Tumor cell lines used in the examples of the present invention were procured from ATCC. Description of the cell lines is included in the following table: […]

A431 cancer cell line = assay: Inhibition of cell growth in A431; assay type: cell-based; conditions: Homo sapiens, A-431
pStat3 = assay: In-Cell-Western blot assay for pStat3 (ICW) in A431 cells; assay type: cell-based; conditions: Homo sapiens, A-431, 2 hrs, read-out: pSTAT3 inhibition
Experimental: A431 cells were seeded onto a 96-well micro plate. After overnight serum starvation cells were incubated with compounds for 2 hrs. Cells were fixed with 4% paraformaldehyde in PBS and then permeabilized with 0.1% Triton X-100 in PBS (PBST). Cells were blocked with 5% BSA in PBST for 2 hrs, followed by overnight incubation with phospho Stat3 antibody. Cells were washed and incubated with europium-labeled anti-rabbit secondary antibody for 2 hrs. After washing enhancement solution was added to the wells. The micro-plate was read on the Victor instrument at the Europium setting. The Hoechst readings were used to normalize for cell number. IC50 values were calculated with the normalized europium values using Graphpad Prism.

Sequence of c-Src (P12931 whole entry, looked up): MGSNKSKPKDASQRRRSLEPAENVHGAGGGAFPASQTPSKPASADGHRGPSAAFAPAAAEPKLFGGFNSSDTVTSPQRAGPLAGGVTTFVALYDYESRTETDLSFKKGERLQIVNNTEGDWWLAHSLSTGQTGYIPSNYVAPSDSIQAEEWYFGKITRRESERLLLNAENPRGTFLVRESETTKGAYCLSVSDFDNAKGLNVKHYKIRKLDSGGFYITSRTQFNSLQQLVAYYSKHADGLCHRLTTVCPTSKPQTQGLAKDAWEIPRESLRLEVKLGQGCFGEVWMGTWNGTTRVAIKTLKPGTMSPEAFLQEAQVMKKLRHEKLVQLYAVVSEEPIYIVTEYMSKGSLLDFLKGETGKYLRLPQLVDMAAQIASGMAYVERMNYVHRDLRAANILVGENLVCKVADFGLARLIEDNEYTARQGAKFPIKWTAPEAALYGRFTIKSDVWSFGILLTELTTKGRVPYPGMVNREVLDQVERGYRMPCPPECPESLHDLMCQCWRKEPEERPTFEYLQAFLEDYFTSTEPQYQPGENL
Sequence of JAK1 (P23458 whole entry): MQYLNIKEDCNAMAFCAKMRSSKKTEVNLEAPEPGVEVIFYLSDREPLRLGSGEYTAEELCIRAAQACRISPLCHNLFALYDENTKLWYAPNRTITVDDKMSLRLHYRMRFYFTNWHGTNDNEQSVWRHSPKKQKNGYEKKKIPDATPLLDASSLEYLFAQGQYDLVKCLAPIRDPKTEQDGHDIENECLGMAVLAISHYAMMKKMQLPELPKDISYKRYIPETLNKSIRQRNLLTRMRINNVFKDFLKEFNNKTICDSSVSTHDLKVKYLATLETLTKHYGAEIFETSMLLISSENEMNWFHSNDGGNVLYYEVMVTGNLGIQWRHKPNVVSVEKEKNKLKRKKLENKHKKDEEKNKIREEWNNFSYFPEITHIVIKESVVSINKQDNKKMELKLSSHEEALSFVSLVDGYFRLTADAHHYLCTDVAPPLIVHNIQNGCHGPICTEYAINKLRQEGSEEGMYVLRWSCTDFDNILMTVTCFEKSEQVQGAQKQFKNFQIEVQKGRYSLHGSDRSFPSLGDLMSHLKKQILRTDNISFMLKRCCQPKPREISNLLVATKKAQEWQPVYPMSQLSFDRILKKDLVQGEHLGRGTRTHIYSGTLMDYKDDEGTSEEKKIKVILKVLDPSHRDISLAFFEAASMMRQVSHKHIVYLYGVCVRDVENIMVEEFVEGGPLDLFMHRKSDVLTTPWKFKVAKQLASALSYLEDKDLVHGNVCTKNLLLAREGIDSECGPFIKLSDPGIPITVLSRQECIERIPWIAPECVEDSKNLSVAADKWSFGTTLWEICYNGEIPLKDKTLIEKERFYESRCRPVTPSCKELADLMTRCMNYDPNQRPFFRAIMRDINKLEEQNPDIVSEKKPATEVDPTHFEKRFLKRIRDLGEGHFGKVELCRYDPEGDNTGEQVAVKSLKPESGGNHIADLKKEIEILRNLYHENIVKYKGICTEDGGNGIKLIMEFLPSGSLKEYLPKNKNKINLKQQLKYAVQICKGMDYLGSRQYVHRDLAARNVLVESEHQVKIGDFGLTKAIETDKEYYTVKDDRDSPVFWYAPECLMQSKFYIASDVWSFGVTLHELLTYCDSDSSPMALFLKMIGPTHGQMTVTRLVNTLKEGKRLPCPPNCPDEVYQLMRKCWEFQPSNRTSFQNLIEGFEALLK
Sequence of JAK2 (O60674 whole entry): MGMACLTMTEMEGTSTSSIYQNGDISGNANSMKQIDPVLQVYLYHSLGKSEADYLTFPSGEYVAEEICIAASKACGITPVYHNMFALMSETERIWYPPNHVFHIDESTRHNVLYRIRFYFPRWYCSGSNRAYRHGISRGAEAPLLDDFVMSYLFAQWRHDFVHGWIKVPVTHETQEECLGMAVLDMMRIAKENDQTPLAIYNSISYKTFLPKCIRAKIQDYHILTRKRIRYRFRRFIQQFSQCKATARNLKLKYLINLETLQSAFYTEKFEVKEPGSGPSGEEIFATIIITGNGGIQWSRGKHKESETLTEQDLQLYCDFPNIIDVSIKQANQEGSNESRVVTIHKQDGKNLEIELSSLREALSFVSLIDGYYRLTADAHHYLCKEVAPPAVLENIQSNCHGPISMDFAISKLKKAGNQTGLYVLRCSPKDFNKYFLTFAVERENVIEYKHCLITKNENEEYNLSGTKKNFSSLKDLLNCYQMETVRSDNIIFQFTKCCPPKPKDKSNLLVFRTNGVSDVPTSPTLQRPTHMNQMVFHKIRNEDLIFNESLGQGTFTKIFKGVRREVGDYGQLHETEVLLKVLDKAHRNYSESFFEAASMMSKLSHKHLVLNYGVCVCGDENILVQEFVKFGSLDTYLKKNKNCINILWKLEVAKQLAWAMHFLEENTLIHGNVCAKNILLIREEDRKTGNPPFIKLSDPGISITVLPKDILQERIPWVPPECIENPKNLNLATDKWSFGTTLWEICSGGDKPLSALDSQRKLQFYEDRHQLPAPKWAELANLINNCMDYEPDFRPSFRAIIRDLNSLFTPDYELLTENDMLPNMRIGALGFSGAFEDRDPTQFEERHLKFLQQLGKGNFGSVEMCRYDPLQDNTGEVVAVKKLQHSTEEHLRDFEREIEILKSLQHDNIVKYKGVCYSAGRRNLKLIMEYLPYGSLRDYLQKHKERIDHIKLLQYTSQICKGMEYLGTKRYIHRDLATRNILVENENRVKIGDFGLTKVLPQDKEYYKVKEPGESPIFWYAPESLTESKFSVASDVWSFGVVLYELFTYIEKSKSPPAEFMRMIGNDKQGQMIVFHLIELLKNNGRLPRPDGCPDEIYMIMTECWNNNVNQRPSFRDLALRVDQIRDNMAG

Compound	inhibition at 0.1 µM (JAK1)	inhibition at 1 µM (JAK1)	IC50 (c-Src)	EC50 (Mda-Mb-231 cells)	EC50 (A431 cancer cell line)	IC50 (JAK2)	IC50 (pStat3)	further results
Cc1ccc(NC(=O)c2cccc(C(F)(F)F)c2)cc1N1CCc2nc(Nc3ccc(OCCN4CCCC4)cc3)ncc2C1 [Compound 9, N-(4-Methyl-3-{2-[4-(2-pyrrolidin-1-yl-ethoxy)-phenylamino]-7,8-dihydro-5H-pyrido[4,3-d]pyrimidin-6-yl}-phenyl)-3-trifluoromethyl-benzamide]	58%	85%						
Cc1ccc(NC(=O)c2cccc(C(F)(F)F)c2)cc1N1CCc2nc(Nc3ccncc3)ncc2C1 [Compound 15, N-{4-Methyl-3-[2-(pyridin-4-ylamino)-7,8-dihydro-5H-pyrido[4,3-d]pyrimidin-6-yl]-phenyl}-3-trifluoromethyl-benzamide]	49%	73%						
Cc1ccc(NC(=O)c2cccc(C(F)(F)F)c2)cc1N1CCc2nc(Nc3ccc4c(c3)CCC(=O)N4)ncc2C1 [Compound 18, N-{4-Methyl-3-[2-(2-oxo-1,2,3,4-tetrahydro-quinolin-6-ylamino)-7,8-dihydro-5H-pyrido[4,3-d]pyrimidin-6-yl]-phenyl}-3-trifluoromethyl-benzamide]	82%	89%						
Cc1ccc(NC(=O)c2cccc(C(F)(F)F)c2)cc1N1CCc2nc(Nc3cccnc3)ncc2C1 [Compound 23, N-{4-Method-3-[2-(pyridin-3-ylamino)-7,8-dihydro-5H-pyrido[4,3-d]pyrimidin-6-yl]-phenyl}-3-trifluoromethyl-benzamide]	84%	88%						
Cc1ccc(NC(=O)c2cccc(C(F)(F)F)c2)cc1N1CCc2nc(Nc3ccnc(Cl)c3)ncc2C1 [Compound 25, N-{3-[2-(2-Chloro-pyridin-4-ylamino)-7,8-dihydro-5H-pyrido[4,3-d]pyrimidin-6-yl]-4-methyl-phenyl}-3-trifluoromethyl-benzamide]	58%	96%						
Cc1ccc(NC(=O)c2cccc(C(F)(F)F)c2)cc1N1CCc2nc(Nc3ccncc3)ncc2C1=O [Compound 26, N-{4-Methyl-3-[5-oxo-2-(pyridin-4-ylamino)-7,8-dihydro-5H-pyrido[4,3-d]pyrimidin-6-yl]-phenyl}-3-trifluoromethyl-benzamide]	57%	79%						
Cc1ccc(C(=O)Nc2cccc(C(F)(F)F)c2)cc1N1CCc2nc(Nc3ccc(Cl)cc3)ncc2C1 [Compound 28]								JAK1 % inhibition at 100 nM (JAK1; 100 nM): 66%; JAK1 % inhibition at 1 μM (JAK1; 1 μM): 79%
Cc1ccc(NC(=O)c2cccc(C(F)(F)F)c2)cc1N1CCc2nc(Nc3ccc(C(=O)N4CCN(C)CC4)cc3)ncc2C1=O [Compound 75, N-(4-Methyl-3-{2-[4-(4-methyl-piperazine-1-carbonyl)-phenylamino]-5-oxo-7,8-dihydro-5H-pyrido[4,3-d]pyrimidin-6-yl}-phenyl)-3-trifluoromethylbenza-mide]			0.019 µM	4.67 µM	1.06 µM			inhibition at 0.1 µM (JAK2): 83%; inhibition at 1 µM (JAK2): 97%
Cc1ccc(NC(=O)c2cccc(C(F)(F)F)c2)cc1N1CCc2nc(Nc3ccc(CC(=O)N4CCN(C)CC4)cc3)ncc2C1=O [Compound 76, N-[4-Methyl-3-(2-{4-[2-(4-methyl-piperazin-1-yl)-2-oxo-ethyl]-phenylamino}-5-oxo-7,8-dihydro-5H-pyrido[4,3-d]pyrimidin-6-yl)-phenyl]-3-trifluoromethylbenza-mide]			0.03 µM	2.15 µM	0.135 µM	0.061 µM	0.13 µM	
Cc1ccc(NC(=O)c2cccc(C(F)(F)F)c2)cc1N1CCc2nc(Nc3ccc(C(=O)NCCCN4CCCC4)cc3)ncc2C1=O [Compound 77, N-(4-methyl-3-(5-oxo-2-(4-(3-(pyrrolidin-1-yl)propylcarbamoyl)phenylamino)-7,8-dihydropyrido[4,3-d]pyrimidin-6(5H)-yl)phenyl)-3-(trifluoromethyl) benzamide]			0.017 µM	4.92 µM	0.512 µM		0.51 µM	inhibition at 0.1 µM (JAK2): 80%; inhibition at 1 µM (JAK2): 96%
CNC(=O)c1ccc(Nc2ncc3c(n2)CCN(c2cc(NC(=O)c4cccc(C(F)(F)F)c4)ccc2C)C3)cn1 [Compound 83, 5-{6-[2-Methyl-5-(3-trifluoromethyl-benzoylamino)-phenyl]-5,6,7,8-tetrahydro-pyrido[4,3-d]pyrimidin-2-ylamino}-pyridine-2-carboxylic acid methylamide]			0.004 µM	0.305 µM	0.24 µM	0.032 µM	0.24 µM	
Cc1ccc(NC(=O)c2cccc(C(F)(F)F)c2)cc1N1CCc2nc(Nc3ccc(C(=O)NC4CCN(C)CC4)cc3)ncc2C1 [Compound 92]				0.005 µM	0.026 µM		0.026 µM	
Cc1ccc(NC(=O)c2cccc(C(F)(F)F)c2)cc1N1CCc2nc(Nc3cncnc3)ncc2C1 [Compound 94, N-{4-Methyl-3-[2-(pyrimidin-5-ylamino)-7,8-dihydro-5H-pyrido[4,3-d]pyrimidin-6-yl]-phenyl}-3-trifluoromethyl-benzamide]			0.002 µM	0.05 µM	0.18 µM	0.019 µM	0.16 µM	
Cc1ccc(NC(=O)c2cccc(C(F)(F)F)c2)cc1N1CCc2nc(Nc3ccc(C(=O)NCCO)cc3)ncc2C1 [Compound 98]			0.001 µM	0.05 µM	0.061 µM	0.007 µM	0.06 µM	
Cc1ccc(NC(=O)c2cccc(C(F)(F)F)c2)cc1N1CCc2nc(Nc3ccc(C(=O)N4CCCC4)cc3)ncc2C1 [Compound 99, N-(4-Methyl-3-{2-[4-(pyrrolidine-1-carbonyl)-phenylamino]-7,8-dihydro-5H-pyrido[4,3-d]pyrimidin-6-yl}-phenyl)-3-trifluoromethyl-benzamide]			0.006 µM	0.12 µM	0.29 µM	0.014 µM	0.3 µM	
Cc1ccc(NC(=O)c2ccc(C(F)(F)F)s2)cc1N1CCc2nc(Nc3ccc(OCCN4CCCC4)cc3)ncc2C1 [Compound 106, 5-Trifluoromethyl-thiophene-2-carboxylic acid (4-methyl-3-{2-[4-(2-pyrrolidin-1-yl-ethoxy)-phenylamino]-7,8-dihydro-5H-pyrido[4,3-d]pyrimidin-6-yl}-phenyl)-amide]			0.002 µM	0.31 µM	0.22 µM	0.018 µM	0.22 µM	inhibition at 0.1 µM (JAK2): 85%; inhibition at 1 µM (JAK2): 98%; inhibition at 0.1 µM (c-Src): 99%; inhibition at 1 µM (c-Src): 100%
Cc1ccc(NC(=O)c2cccc(C(F)(F)F)c2)cc1N1CCc2nc(Nc3ccc(C(N)=O)nc3)ncc2C1 [Compound 119, 5-{6-[2-Methyl-5-(3-trifluoromethyl-benzoylamino)-phenyl]-5,6,7,8-tetrahydro-pyrido[4,3-d]pyrimidin-2-ylamino)-pyridine-2-carboxylic acid amide]				0.38 µM		0.008 µM	0.28 µM	inhibition at 0.1 µM (c-Src): 95%; inhibition at 1 µM (c-Src): 98%
Cc1ccc(NC(=O)CC(C)C(F)(F)F)cc1N1CCc2nc(Nc3ccc(N4CCN(C)CC4)cc3)ncc2C1 (centres unmarked) [Compound 123, 4,4,4-Trifluoro-3-methyl-N-(4-methyl-3-{2-[4-(4-methyl-piperazin-1-yl)-phenylamino]-7,8-dihydro-5H-pyrido[4,3-d]pyrimidin-6-yl}-phenyl)-butyramide]			0.003 µM	0.83 µM		0.009 µM	0.19 µM	
Cc1ccc(NC(=O)c2cc(C(F)(F)F)ccn2)cc1N1CCc2nc(Nc3ccc(N4CCN(C)CC4)cc3)ncc2C1 [Compound 146, 4-Trifluoromethyl-pyridine-2-carboxylic acid (4-methyl-3-{2-[4-(4-methyl-piperazin-1-yl)-phenylamino]-7,8-dihydro-5H-pyrido[4,3-d]pyrimidin-6-yl}-phenyl)-amide]			0.006 µM	0.37 µM		0.005 µM	0.35 µM	
Cc1ccc(NC(=O)c2cccc(C(F)(F)F)c2)cc1N1CCc2nc(Nc3ccc(N4CCNCC4)cc3)ncc2C1=O [Compound 178, N-{4-Methyl-3-[5-oxo-2-(4-piperazin-1-yl-phenylamino)-7,8-dihydro-5H-pyrido[4,3-d]pyrimidin-6-yl]-phenyl}-3-trifluoromethyl-benzamide]			0.017 µM	1.75 µM		0.007 µM	0.15 µM	inhibition at 0.1 µM (JAK2): 91%; inhibition at 1 µM (JAK2): 92%; inhibition at 0.1 µM (c-Src): 77%; inhibition at 1 µM (c-Src): 90%
